One experiment addresses T1, cyclooxygenase (Rattus norvegicus, UniProt Q63921).
T1 construct: from tissue; host or cells: platelets in platelet-rich plasma from rat abdominal aorta blood (Jcl:wistar, male)
T1 sequence (Q63921 27-602): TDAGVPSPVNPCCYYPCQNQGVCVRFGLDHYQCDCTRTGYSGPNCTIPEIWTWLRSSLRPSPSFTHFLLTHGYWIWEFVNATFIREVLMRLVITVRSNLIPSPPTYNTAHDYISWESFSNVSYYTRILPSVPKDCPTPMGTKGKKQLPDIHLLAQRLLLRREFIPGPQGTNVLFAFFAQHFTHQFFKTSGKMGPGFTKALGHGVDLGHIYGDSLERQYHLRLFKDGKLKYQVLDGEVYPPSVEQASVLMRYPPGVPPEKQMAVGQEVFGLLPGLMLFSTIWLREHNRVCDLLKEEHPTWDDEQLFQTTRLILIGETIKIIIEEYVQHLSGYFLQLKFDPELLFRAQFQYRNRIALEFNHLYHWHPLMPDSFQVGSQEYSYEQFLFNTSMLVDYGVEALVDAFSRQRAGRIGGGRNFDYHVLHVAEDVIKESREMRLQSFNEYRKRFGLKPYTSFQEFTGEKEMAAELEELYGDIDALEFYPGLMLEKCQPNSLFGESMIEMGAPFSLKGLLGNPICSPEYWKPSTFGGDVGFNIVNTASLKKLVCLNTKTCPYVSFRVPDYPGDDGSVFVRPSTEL
The experiment in a line: Cyclooxygenase inhibitory activity (HHT formation from arachidonic acid in rat platelet-rich plasma). Format: cell-based, rat (Jcl:wistar).

Experiment [1] has as its system Rat carrageenin pedal edema. Kind of experiment: Rat carrageenin pedal edema inhibitory activity. The conditions noted are these: 50 mg/kg, orally, 3 hours after carrageenin; for inhibition in vivo at 50 mg/kg: Rattus norvegicus, po, 3 h, read-out: Inhibitory percentage (carrageenin pedal edema). The class given is in vivo, rat (Jcl: SD). On the procedure: Rat Carrageenin Pedal Edema Inhibitory Activity A Jcl: SD male rat (6 weeks old, weight 160-220 g) was used. After the mesurement of the volume of the dexter hind limb foot pad, a test compound suspended in 5% gum arabic solution was administered orally. Immediately after the administration, water was further administered orally so that the total administration volume of liquid became 5 ml/rat. After one hour, 0.05 ml of 1% carrageenin suspension in physiological saline was injected subcutaneously in the foot pad to induce edema [Winter, […]. and Nuss, G. W.: Proc. Soc. exp. […] Three hours after injection of carrageenin, the volume of the dexter limb was measured, and the edema volume was calculated by the difference between the volume after injection and the volume prior to injection.
On the technique in general: In the carrageenan paw model, swelling and tenderness develop within hours.

For experiment [2], the system named is ART (antigen-responding T-cell). Kind of experiment: In vitro ART (antigen-responding T-cell) proliferation test. The class given is cell-based, Lewis rat. The conditions noted are these: Rattus norvegicus, T-cell, read-out: % Inhibition of ART growth.
Experiment [3] concerns Mouse phenylquinone writhing. The experiment in a line: Mouse phenylquinone writhing inhibitory activity. Format: in vivo, mouse (Slc: ICR). The conditions noted are these: Mus musculus, po, 20 min, 50 mg/kg, orally; read-out: Inhibitory percentage (phenylquinone writhing). On the procedure:
Mouse Phenylquinone Writhing Inhibitory Activity A Slc: ICR male mouse (4 weeks, weight 17 to 24 g) was used. A test compound suspended in 5% gum arabic solution was administered orally. After 30 minutes, 0.1 ml/10 g body weight of 0.02% phenylquinone solution in water (dissolved by the aid of 5% ethanol) was injected intraperitoneally, and writhing and stretching responses of individual animals were measured for 20 minutes [Siegmund, E., Cadmus, R. and Lu, G.; Proc. Soc. exp. Biol. Med. 95, (1957)].

The subject of experiment [4] is brewer's yeast induced pyrexia. The experiment in a line: Antipyretic activity (brewer's yeast induced pyrexia). Format: in vivo, rat (DS line). The conditions noted are these: 50 mg/kg, orally; for Antipyretic activity, .increment. °C.: at peak time. The protocol: Antipyretic Activity Six male DS line rats, 7 weeks old, weighing 200 to 240 g (Nihon Clea) per one group were used. According to the method of Winder et al. (J. Pharmac. Exp. Ther. 138: 405 (1963)), a suspension of 15% brewer's yeast (Sigma) in physiological saline (1 ml/100 g, b.w.) was injected subcutaneously at 16 hours before measurement of the body temperature to induce pyrexia. After injection of yeast, only water was provided, and each rat was bred separately in a five duplicate cage. At 16, 17 and 18 hours after yeast injection, the rectal temperature was measured by a thermistor thermometer (Takara Kogyo K.K.), and this was taken as the basal body temperature. […] Animals having the body temperature of not lower than 38.5° C. at 18 hours after yeast injection were selected, and a test compound was administered orally (1 ml/100 g, b.w.). As a control, only the solvent was provided. Upon administration, the body temperature of the control group and that of the test compound-administered group were adjusted to the same temperature. The rectal temperature was measured every hour till five hours after administration.

Where a name gives a salt, the structure may show the parent alone.

Experimental findings from US5457106A, “Pyridine derivatives, their production and use” (Takeda Chemical Industries, Ltd., priority 1991, dated 1995) are described below.

`O=C(/C=C/c1ccccc1)NCCCSc1ccncc1` [Example 28, 4-[3-(cinnamoylamino)propylthio]pyridine hydrochloride] returned an IC50 at cyclooxygenase of 5.6 µM. The inhibition in vivo at 50 mg/kg in experiment [1] stood at 25%.

`Cc1ccc(C(=O)NCCCSc2ccncc2)cc1` [Example 31, 4-[3-(4-methylbenzoylamino)propylthio]pyridine] displayed an IC50 against cyclooxygenase of 4.6 µM. Besides, the inhibition in vivo at 50 mg/kg in experiment [1] was found to be 32%.

`COc1cc(OC)cc(C(=O)NCCCSc2ccncc2)c1` [Example 33, 4-[3-(3,5-dimethoxybenzoylamino)propylthio]pyridine] gave an IC50 on cyclooxygenase of 2.8 µM. In experiment [2], the inhibition at 1 µM was 33% and the inhibition at 10 µM came out at 46%. Further, the inhibition in vivo at 50 mg/kg in experiment [1] is 37%.

`O=C(NCCCSc1ccncc1)c1ccncc1` [Example 43, 4-[3-(4-picolynoylamino)propylthio]pyridine] gave an IC50 against cyclooxygenase of 13 µM. Moreover, the inhibition in vivo at 50 mg/kg in experiment [3] was determined as 48%; in experiment [1] it was 24%.

Regarding `O=C(NCCCSc1ccccn1)c1cccs1` [Example 47, 2-[3-(thenoylamino)propylthio]pyridine], the inhibition in vivo at 50 mg/kg in experiment [3] amounted to 47%; in experiment [1], 25%.

`O=C(Cc1cccs1)NCCCSc1ccncc1` [Example 55, 4-[3-(2-thienylacetylamino)propylthio]pyridine] had an IC50 at cyclooxygenase of 8.7 µM. The results for the inhibition in vivo at 50 mg/kg in experiment [3] and in experiment [1] were 58% and 41%, respectively.

On cyclooxygenase, `O=C(NCCCSc1ccncc1)c1cc(Br)c(Br)s1` [Example 58, 4-[3-(4,5-dibromothenoylamino)propylthio]pyridine] yielded an IC50 of 7.9 µM. In addition, the inhibition in vivo at 50 mg/kg is 34% in experiment [3] and 48% in experiment [1].

As for `Cc1ccc(C(=O)NCCCSc2ccncc2)s1` [Example 59, 4-[3-(5-methylthenoylamino)propylthio]pyridine], the IC50 against cyclooxygenase is 3.5 µM. In addition, the inhibition in vivo at 50 mg/kg in experiment [3] was found to be 49%; in experiment [1], 35%.

With `O=C1c2ccccc2C(=O)N1CSc1cccnc1` [Example 63, 3-(phthalimidomethylthio)pyridine], the inhibition in vivo at 50 mg/kg was 56% in experiment [3] and 34% in experiment [1].

On to `O=C1c2ccccc2C(=O)N1COc1ccncc1` [Example 65, 4-(phthalimidomethyloxy)pyridine], for which the “Antipyretic activity, peak time” value in experiment [4] worked out at 4 h. The “Antipyretic activity, .increment. °C.” value in experiment [4] is -0.62 °C. Moreover, the results for the inhibition in vivo at 50 mg/kg in experiment [3] and in experiment [1] were 80% and 39%, respectively.

In the case of `O=C(N(CCCSc1ccncc1)Cc1cccs1)C(F)(F)F` [Example 68, 4-[3-[N-(2-thienylmethyl)-N-trifluoroacetylamino]propylthio]pyridine hydrochloride], the inhibition in vivo at 50 mg/kg amounted to 50% in experiment [3] and 23% in experiment [1].

`CC(=O)N(CCCSc1ccncc1)Cc1cccs1` [Example 90] returned an IC50 on cyclooxygenase of 4.9 µM. Besides, in experiment [2], the inhibition at 1 µM amounted to 34% and the inhibition at 10 µM was found to be 49%. Further, in experiment [3], the inhibition in vivo at 50 mg/kg was 53%. In addition, the inhibition in vivo at 50 mg/kg in experiment [1] was 21%.

Regarding `O=C(NCCCOc1ccncc1)c1ccccc1CO` [Example 100, 4-[3-(2-hydroxymethylbenzoyl)aminopropyloxy]pyridine], inhibition against cyclooxygenase was half-maximal at 8 µM (IC50). Further, in experiment [2], the inhibition at 1 µM was 19% and the inhibition at 10 µM was found to be 32%. Also, in experiment [1], the inhibition in vivo at 50 mg/kg was 22%.

In the case of `O=C1c2ccccc2CN1CCCOc1ccncc1` [Example 101, 4-[3-(isoindolin-1-on-2-yl)propyloxy]pyridine], the IC50 against cyclooxygenase was determined as 3.2 µM. Moreover, in experiment [2], the inhibition at 1 µM worked out at 39% and the inhibition at 10 µM is 12%. Further, in experiment [3], the inhibition in vivo at 50 mg/kg stood at 66%. Also, the inhibition in vivo at 50 mg/kg in experiment [1] amounted to 26%.

Molecule `O=C1c2ccccc2C(O)N1CCSc1ccncc1` (stereo not shown) [Example 104, 4-[2-(3-hydroxyisoindolin-1-on-2-yl)ethylthio]pyridine] yielded an IC50 at cyclooxygenase of 7.7 µM. Moreover, the inhibition in vivo at 50 mg/kg in experiment [1] was determined as 21%.

For `O=C1c2ccccc2CN1CCSc1ccncc1` [Example 105, 4-[2-(isoindolin-1-on-2-yl)ethylthio]pyridine], on cyclooxygenase, the IC50 turned out to be 5.1 µM. Moreover, in experiment [2], the inhibition at 1 µM is -4% and the inhibition at 10 µM is -49%. The inhibition in vivo at 50 mg/kg in experiment [3] was found to be 59%. For the same molecule, in experiment [1], the inhibition in vivo at 50 mg/kg amounted to 31%.

Take `O=C1c2ccccc2C(O)N1CCCSc1ccncc1` (stereo not shown) [Example 110, 4-[3-(3-hydroxyisoindolin-1-on-2-yl)propylthio]pyridine]: the IC50 on cyclooxygenase came out at 11 µM. In experiment [2], the inhibition at 1 µM is -21% and the inhibition at 10 µM is 1%. The inhibition in vivo at 50 mg/kg in experiment [1] was found to be 44%.

With `CNC(=O)c1ccccc1C(=O)NCSc1ccncc1` [Example 112, 4-[(2-methylcarbamoylbenzoyl)aminomethylthio]pyridine], in experiment [4], the “Antipyretic activity, peak time” value turned out to be 3 h and the “Antipyretic activity, .increment. °C.” value is -1.58 °C. Further, the IC50 against cyclooxygenase turned out to be 13 µM. The inhibition in vivo at 50 mg/kg in experiment [1] amounted to 42%.

For the molecule `Cl.O=C1c2ccccc2C(=O)N1CCCOc1ccncc1` [Example 113, 4-(3-phthalimidopropyloxy)pyridine hydrochloride], in experiment [4], the “Antipyretic activity, peak time” value was found to be 4 h and the “Antipyretic activity, .increment. °C.” value is -0.82 °C. Besides, the inhibition in vivo at 50 mg/kg in experiment [1] came to 35%.

As for `O=C1c2ccccc2C(=O)N1CCCCOc1ccncc1` [Example 114, 4-(4-phthalimidobutyloxy)pyridine hydrochloride], in experiment [4] (hydrochloride), the “Antipyretic activity, .increment. °C.” value was -1.14 °C and the “Antipyretic activity, peak time” value was determined as 4 h. Also, the inhibition in vivo at 50 mg/kg in experiment [1] came to 28%.

With `Cl.O=C1c2ccccc2C(=O)N1COc1ccncc1` [Example 116, 4-phthalimidomethyloxypyridine hydrochloride], in experiment [4], the “Antipyretic activity, peak time” value is recorded as 3 h and the “Antipyretic activity, .increment. °C.” value is -0.63 °C. Also, in experiment [2], the inhibition at 1 µM came to 10% and the inhibition at 10 µM was 31%. Moreover, the “Inhibitory percentage (carrageenin pedal edema)” value in experiment [1] turned out to be 45%.

As for `Cl.Cl.O=C(NCCCOc1ccncc1)c1ccccn1` [Example 126, 4-[3-(2-picolinoylamino)propyloxy]pyridine dihydrochloride], in experiment [4], the “Antipyretic activity, peak time” value stood at 2 h and the “Antipyretic activity, .increment. °C.” value was -1.21 °C. In addition, in experiment [1], the inhibition in vivo at 50 mg/kg stood at 30%.

Turning to `O=C(NCCCCSc1ccncc1)c1cccs1` [Example 129, 4-[4-(2-thenonylamino)butylthio]pyridine], the IC50 against cyclooxygenase came to 2.5 µM. The inhibition in vivo at 50 mg/kg in experiment [1] is 34%.

On to `O=C1c2ccccc2CN1CCCCOc1ccncc1` [Example 156, 4-[4-(isoindolin-1-on-2-yl)butyloxy]pyridine], for which the IC50 at cyclooxygenase was determined as 2.9 µM. The inhibition in vivo at 50 mg/kg in experiment [1] was 32%.

For the molecule `O=C1CSC(=S)N1CCCCSc1ccncc1` [Example 163, 4-(4-rhodaninebutylthio)pyridine], in experiment [2], the inhibition at 10 µM is 99%. Further, the inhibition in vivo at 50 mg/kg in experiment [1] is 29%.

One may read the IC50 as the concentration that gives 50% inhibition. High values mean weaker potency in that assay, low ones greater potency in that assay. For orientation: inhibition means the drop in the measured response relative to a control, in per cent.
